Experimental data published in US10151753B2, “Microfluidic devices for isolating particles” (The General Hospital Corporation, priority 2013, dated 2018).

What was measured:
Rec-1 cells = experiment: Ibrutinib-BFL fluorescence imaging of captured cells on the microfluidic device; type: cell-based; settings: Rec-1 mantle cell lymphoma cells, FIG. 24
Jurkat cells = experiment: as above; type: cell-based; settings: FIG. 24

## Cc1cc(C)n2c1C=C1C=CC(CCC(=O)NCC=CC(=O)N3CCCC(n4nc(-c5ccc(Oc6ccccc6)cc5)c5c(N)ncnc54)C3)=[N+]1[B-]2(F)F (centres unmarked) [Ibrutinib-BFL]
Rec-1 cells
  fluorescence of cells when incubated with the imaging drug (binding): exhibit fluorescence
Jurkat cells
  fluorescence of cells when incubated with the imaging drug (binding): do not exhibit fluorescent
